Test results: patent EP4775577A1, “RAS INHIBITOR” (Tyligand Bioscience (Shanghai) Limited, priority 2023, dated 2025)
Read-outs that look alike come from different tables or passages of the source.

Key:
[1] = test system: KRAS G12V mutant NCI-H727 cells; experiment: Proliferation inhibition of NCI-H727 cells, 3D CellTiter-Glo assay (Method B); assay type: cell-based, human; conditions: Method B, 3D culture with 0.65% methylcellulose, 5 days, CTG, read-out: NCI-H727 IC50/nM
Procedure: NCI-H727 cells (Nanjing Kebai Biotechnology Co., Ltd., catalog number CBP60182, adherent, culture medium RPMI-1640+10%FBS (GIBCO, Cat#10091-148)) were cultured at 37°C, 5% CO2, and 95% humidity.
3D cell viability assay: Cells in the logarithmic growth phase were harvested and counted using a platelet counter. Cell viability was assessed using the trypan blue exclusion method to ensure a viability of over 90%. The 3D cell culture medium was prepared by adding 1% MC (methylcellulose, Sigma, Cat#M0512) to RPMI-1640 medium and 10% FBS. The cell concentration was adjusted to approximately 25,000 cells/mL using the 3D medium, and the methylcellulose (MC) content was set to 0.65%. Then, 80 µL of cell suspension was added to each 96-well clear, flat-bottomed, black-walled plate (Greiner, Cat# 655096). The cells in the 96-well plates were cultured overnight at 37°C and 5% CO2.
Drug preparation for IC50 assay: A 5-fold drug solution was prepared using culture medium. 20 µL of the drug solution was added to each well of a 96-well plate seeded with cells to achieve a working concentration of up to 10 µM, with a 3× dilution, and 9 concentrations. 2 replicate wells for each drug concentration were set. The cells in the drug-treated 96-well plates were cultured at 37°C and 5% CO2 for additional 5 days, then CTG assay (CellTiter-Glo® Luminescent Cell Viability Assay (Promega, Cat#G7573)) were performed.
The cell plate was equilibrated to room temperature for 30 minutes and the CTG reagent was thawed. 50 µL of CTG solution was added to each well for detection and the plate was shaken on an orbital shaker for 5 minutes to lyse the cells. The cell plate was then placed at room temperature for 25 minutes to stabilize the cryo-luminescence signal, and the cryo-luminescence value was read (EnVision® multi-plate reader, PerkinElmer#2105).
(§1) Data was analyzed using GraphPad Prism software. The dose-response-inhibition equation was used to fit the data to obtain the dose-response curve, and the IC50 value (nM) was calculated accordingly. [formula]

[2] = test system: KRAS G12D mutant AGS cells; experiment: Proliferation inhibition of AGS cells, CellTiter-Glo assay; assay type: cell-based, human; conditions: 3 days, CTG, read-out: AGS IC50/nM
Procedure: AGS cells (Nanjing Kebai Biotechnology Co., Ltd., catalog number CBP60476, adherent, culture medium (F12K Nutrient Mixture+10% FBS (GIBCO, Cat#10091-148) were cultured at 37°C, 5% CO2, and 95% humidity at a density of 1500 cells/well. Cells in the logarithmic growth phase were harvested and counted using a Countstar automated cell counter based on the classic trypan blue staining method to ensure cell viability was above 90%. The cell concentration was adjusted, and 80 µL of cell suspension was added to each 96-well clear flat-bottomed, black-walled plate (Greiner, Cat# 655090). The cells in the 96-well plates were then cultured at 37°C and 5% CO2.
Drug preparation for IC50 assay: A 5-fold drug solution was prepared using culture medium. 20 µL of the drug solution was added to each well of a 96-well plate seeded with cells to achieve a working concentration of up to 10 µM, with a 3 × dilution, and a total of 9 concentrations. 2 replicate wells for each drug concentration were set. The cells in the drug-treated 96-well plates were cultured at 37°C and 5% CO2 for additional 3 days and then CTG assay were performed.
The cell plate was equilibrated to room temperature for 30 minutes and the CTG reagent (CellTiter-Glo® Luminescent Cell Viability Assay (Promega, Cat# G7573)) was thawed. 50 µL of CTG solution was added to each well and the plate was shaken on an orbital shaker for 2 minutes to lyse the cells. The cell plate was placed at room temperature for 10 minutes to stabilize the cryo-luminescence signal and the cryo-luminescence value was read (EnVision® Multifunctional microplate reader, PerkinElmer #2105).
as §1

Row | Compound | IC50 ([1]; Homo sapiens, NCI-H727, 120 h) [nM] | IC50 ([2]; Homo sapiens, AGS, 72 h) [nM] | other results
1 | COCc1cc2c(N3Cc4cc(C(=O)N(C)C)nn4CC[C@@H]3C)nc(OC[C@]3(C)CN(C)CC/C3=C\F)nc2c(F)c1-c1c(F)ccc2sc(N)c(C#N)c12 (single isomer, unassigned) [Example 226A] | 39.8 | 19.7 | –
2 | CCc1cc2c(N3Cc4cc(C(=O)N(C)C)nn4CCC3C)nc(OCC3(C)CN(CC)CCC3=CF)nc2c(Cl)c1-c1c(F)ccc2sc(N)c(C#N)c12 (centres unmarked) [Example 193] | 2.1 | < 1.5 | –
3 | [2H]C([2H])([2H])N1CC/C(=C\F)[C@](C)(COc2nc(N3Cc4cc(C(=O)N(C)C)nn4CC[C@@H]3C)c3cc(Cl)c(-c4c(F)ccc5sc(N)c(C#N)c45)c(C)c3n2)C1 (single isomer, unassigned) [Example 177A] | – | < 1.5 | –
4 | [2H]C([2H])([2H])N1CC/C(=C\F)[C@](C)(COc2nc(N3Cc4c(F)c(C(=O)N(C)C)nn4CC[C@@H]3C)c3cc(CC)c(-c4c(F)ccc5sc(N)c(C#N)c45)c(F)c3n2)C1 (single isomer, unassigned) [Example 181A] | – | < 1.5 | –
5 | CCN1CCC(=CF)C(C)(COc2nc(N3Cc4cc(C(=O)N5CCN(C)CC5)nn4CCC3C)c3cc(Cl)c(-c4c(F)ccc5sc(N)c(C#N)c45)c(F)c3n2)C1 (centres unmarked) [Example 261A] | 1.9 | < 1.5 | –
6 | CCN1CCC(=CF)C(C)(COc2nc(N3Cc4cc(C(=O)N5CCC5)nn4CCC3C)c3cc(Cl)c(-c4c(F)ccc5sc(N)c(C#N)c45)c(F)c3n2)C1 (centres unmarked) [Example 254A] | < 1.5 | < 1.5 | –
7 | CN1CC/C(=C\F)[C@](C)(COc2nc(N3CCCn4nc(C(=O)N(C)C)cc4C3)c3cc(C(F)(F)F)c(-c4cccc5sc(N)c(C#N)c45)c(F)c3n2)C1 [Example 8, 5-(7-(2-Amino-3-cyanobenzo[b]thiophene-4-yl)-8-fluoro-2-(((S,E)-4-(fluoromethylene)-1,3-dimethylpiperidine-3-yl)methoxy)-6-(trifluoromethyl)quinazoline-4-yl)-N,N-dimethyl-5,6,7,8-tetrahydro-4H-pyrazolo[1,5-a][1,4]diazepine-2-formamide] | 21.3 | 8.1 | –
8 | [2H]C([2H])([2H])N1CCC(=CF)C(C)(COc2nc(N3Cc4cc(C(=O)N(C)C)nn4CCC3C)c3cc(CC)c(-c4c(F)ccc5sc(N)c(C#N)c45)c(Cl)c3n2)C1 (centres unmarked) [Example 192] | 2 | < 1.5 | –
9 | CCN1CC/C(=C\F)[C@](C)(COc2nc(N3Cc4cc(C(=O)N(C)C)nn4CC[C@@H]3C)c3cc(Cl)c(-c4ncc(F)c5sc(N)c(C#N)c45)c(F)c3n2)C1 (single isomer, unassigned) [Example 231A] | 4.4 | 2.5 | –
10 | CN1CCC(=CF)C(C)(COc2nc(N3CCC(C#N)C(O)C3)c3cc(C(F)(F)F)c(-c4cccc5sc(N)c(C#N)c45)c(F)c3n2)C1 (centres unmarked) [Example 105] | 26.9 | 338 | –
11 | [2H]C([2H])([2H])N1CCC(=CF)C(C)(COc2nc(N3Cc4cc(C(=O)N(C([2H])([2H])[2H])C([2H])([2H])[2H])nn4CCC3C)c3cc(CC)c(-c4c(F)ccc5sc(N)c(C#N)c45)c(F)c3n2)C1 (single isomer, unassigned) [Example 185A] | < 1.5 | < 1.5 | –
12 | CN1CC[C@H](C(F)F)[C@](C)(COc2nc(N3CCOC[C@@](C)(O)C3)c3cc(C(F)(F)F)c(-c4c(F)ccc5sc(N)c(C#N)c45)c(F)c3n2)C1 (single isomer, unassigned) [Example 65B] | – | – | IC50 [1]: 39.3 nM
13 | CN1CC[C@H](C(F)F)[C@](C)(COc2nc(N3CCOC[C@@](C)(O)C3)c3cc(C(F)(F)F)c(-c4c(F)ccc5sc(N)c(C#N)c45)c(F)c3n2)C1 (single isomer, unassigned) [Example 65A] | – | – | IC50 [1]: < 1.5 nM
14 | [2H]C([2H])([2H])N1CC[C@H](C(F)F)[C@](C)(COc2nc(N3CCOC[C@@](C)(O)C3)c3cc(C#N)c(-c4c(F)ccc5sc(N)c(C#N)c45)c(F)c3n2)C1 [Example 89, 7-(2-Amino-3-cyano-5-fluorobenzo[b]thiophene-4-yl)-2-(((3S,4S)-4-(difluoromethyl)-3-methyl-1-(methyl-d3)piperidine-3-yl)methoxy)-8-fluoro-4-((S)-6-hydroxy-6-methyl-1,4-oxazacycloheptane-4-yl)quinazoline-6-carbonitrile] | 12.4 | – | –
15 | [2H]C([2H])([2H])N1CC/C(=C\F)[C@](C)(COc2nc(N3CCOC[C@@](C)(O)C3)c3cc(C#N)c(-c4c(F)ccc5sc(N)c(C#N)c45)c(F)c3n2)C1 [Example 88, 7-(2-Amino-3-cyano-5-fluorobenzo[b]thiophene-4-yl)-8-fluoro-2-(((S,E)-4-(fluoromethylene)-3-methyl-1-(methyl-d3)piperidine-3-yl)methoxy)-4-((S)-6-hydroxy-6-methyl-1,4-oxazacycloheptane-4-yl)quinazoline-6-carbonitrile] | 23.3 | – | –
16 | [2H]C([2H])([2H])N1CC/C(=C\F)[C@](C)(COc2nc(N3CCOC[C@@](C)(O)C3)c3cc(C#N)c(-c4cccc5sc(N)c(C#N)c45)c(F)c3n2)C1 [Example 90, 7-(2-Amino-3-cyanobenzo[b]thiophene-4-yl)-8-fluoro-2-(((S,E)-4-(fluoromethylene)-3-methyl-1-(methyl-d3)piperidine-3-yl)methoxy)-4-((S)-6-hydroxy-6-methyl-1,4-oxazacycloheptane-4-yl)quinazoline-6-carbonitrile] | 58.3 | – | –
17 | CN1CC/C(=C\F)[C@](C)(COc2nc(N3CCOC[C@@](C)(O)C3)c3cc([N+](=O)[O-])c(-c4cccc5sc(N)c(C#N)c45)c(F)c3n2)C1 (atropisomer, axis not shown; (Ra)) [Example 87A] | – | – | IC50 [1]: 3.8 nM
18 | CN1CC[C@H](C(F)F)[C@](C)(COc2nc(N3CCOC[C@@](C)(O)C3)c3cc([N+](=O)[O-])c(-c4cccc5sc(N)c(C#N)c45)c(F)c3n2)C1 [Example 86] | – | – | IC50 [1]: 4.5 nM
19 | [2H]C([2H])([2H])N1CC/C(=C\F)[C@](C)(COc2nc(N3CCCn4nc(C(=O)N(C)C)c(Cl)c4C3)c3cc(Cl)c(-c4c(F)ccc5sc(N)c(C#N)c45)c(C)c3n2)C1 (single isomer, unassigned) [Example 179A] | – | 4.2 | –
20 | CN1CC/C(=C\F)[C@](C)(COc2nc(N3CCCn4nc(C(=O)N(C)C)nc4C3)c3cc(C(F)(F)F)c(-c4cccc5sc(N)c(C#N)c45)c(F)c3n2)C1 [Example 101] | – | 100 | –
21 | CN1CCC(=CF)C(C)(COc2nc(N3CCC(C#N)C(O)C3)c3cc(C(F)(F)F)c(-c4cccc5sc(N)c(C#N)c45)c(F)c3n2)C1 (centres unmarked) [Example 155] | – | – | IC50 [1]: 21 nM
22 | CN1CC/C(=C\F)[C@](C)(COc2nc3c(F)c(-c4cccc5sc(N)c(C#N)c45)c(Cl)cc3c(N3CCCn4nc(C(=O)N(C)C)cc4C3)c2C#N)C1 [Example 102] | 4270 | – | –
23 | CN1CC/C(=C\F)[C@](C)(COc2nc(N3CCCn4nc(C(=O)N(C)C)cc4C3)c3cc(C#N)c(-c4cccc5sc(N)c(C#N)c45)c(F)c3n2)C1 [Example 103] | – | 301 | –
24 | CN1CC/C(=C\F)[C@](C)(COc2nc(N3CCCn4nc(C(=O)N(C)C)c(Cl)c4C3)c3cc(C4CC4)c(-c4c(F)ccc5sc(N)c(C#N)c45)c(F)c3n2)C1 (single isomer, unassigned) [Example 161B] | – | – | IC50 [2]: 33.5 nM
25 | [2H]C([2H])([2H])N1CC[C@H](C(F)F)[C@](C)(COc2nc(N3CCOC[C@@](C)(O)C3)c3cc([N+](=O)[O-])c(-c4cccc5sc(N)c(C#N)c45)c(F)c3n2)C1 [Example 86] | – | 8.7 | –
26 | CN1CC/C(=C\F)[C@](C)(COc2nc(N3CCOC[C@@](C)(O)C3)c3cc([N+](=O)[O-])c(-c4cccc5sc(N)c(C#N)c45)c(F)c3n2)C1 [Example 87] | – | – | IC50 [1]: 9 nM
